The subject of assay [1] is isolated rat bladder strips. The assay is described as follows: Isolated rat bladder strip contraction. The following applies: Rattus norvegicus, n=4. As for the experimental part: Male Sprague-Dawley rats (200–400 grams) are euthanized by CO2 inhalation and exsanguination. Their urinary bladders are rapidly removed and placed in […] physiological salt solution (PSS) that contained the following (mM): NaCl (118.4), KCl (5), CaCl2 (2.5), MgSO4 (1.2), KH2PO4 (1.2), NaHCO3 (24.9) and D-glucose (11.1) gassed with O2/CO2 (95% /5%) to achieve a pH of 7.4. The dome of the bladder is isolated from the trigon region and this tissue is then cut into 4–5 mm wide by 10 mm long strips. One end is secured to the bottom of a water jacketed tissue bath and the other to a GRASS isometric force transducer (Grass Instruments, Quincy, Mass.). Tissues are pretensioned (0.25 to 0.5 grams), and after 30 minutes of equilibration are contracted with an additional 15 mM KCl (total of 20 mM) and again allowed to equilibrate until the preparations are contracting steadily. Any of a variety of compounds are administered directly into the tissue baths as sequential concentrations. Transducer signals are digitized (12 bit resolution) and analyzed on-line using a 586-based computer and custom software. The area under the contraction curve (AUC) is used as a measure of contractility since the spontaneous bladder contractions are irregular in amplitude and frequency. A 5-minute AUC value is taken 30 minutes after administration of each compound concentration to the tissue bath.
We isolated rat bladder strips from male Sprague-Dawley rats as previously described, (Wojdan, A., Freeden, C., Woods, M., Oshiro, G., Spinelli, W. et al., J Pharmacol Exp Therap 289: 1410–1418 (1999)) and precontracted them with 20 mM KCl. The KCNQ channel agonist retigabine, was added to the tissue bath in increasing concentrations, and area under the contraction curve was analyzed.
In another study, isolated rat bladder strips were precontracted with 60 mM KCl (FIG. 1).
The difference in IC50s between 20 and 60 mM KCl depolarizations are consistent with a potassium channel opening mechanism.
Rat bladder strips were isolated and prepared as previously described (Wojdan, A., Freeden, C., Woods, M., Oshiro, G., Spinelli, W. et al., J Pharmacol ExpTherap 289:1410–1418 (1999)). Preparations were contracted with either 20 or 60 mM KCl, or 200 nM carbachol. A five minute area under the contraction curve was acquired 20 minutes after addition of each concentration of retigabine using a 12 bit D/A and a 586 based personal computer running custom software. Message for KCNQ subunits was probed using quantitative rtPCR on an ABI PRISM 7700 Sequence Detection System (TAQMAN). Forward and reverse primers and TAQMAN probes were designed using published RNA sequences for human KCNQ1–5 and rat KCNQ 1–4 listed within the NCBI data base. Since no rat sequence for KCNQ5 were currently published, probes and primers were designed by BLAST analysis of rat Expressed Sequence Tags (EST) using the known mouse KNCQ5 sequence. From homologous EST sequences, a contiguous sequence of 384 base pairs was constructed. Probes and primers were designed against this sequence. BLAST analysis of our rat KCNQ5 probes and primer were selective for mouse and human KCNQ5 sequences. PCR products were confirmed by gel electrophoresis (data not shown). Cells for electrophysiology were prepared from rat bladder smooth muscle as previously described (Wojdan et al., 1999). Human bladder smooth muscle cells were obtained from Clonetics, San Diego, Calif. […]

For assay [2], the system named is cultured human bladder smooth muscle cells. The assay is described as follows: Current clamp recording of resting membrane potential, human cells. To be noted: resting membrane potential −8.0±2.8 mV before retigabine; n=3. It counts as cell-based. As for the experimental part: Single cell recordings are performed with a List-Medical EPC-7 patch clamp amplifier (Adams & List Assoc., Westbury, N.Y.). Pipette electrodes had tip resistances of 2–4 MΩ and are filled with the following composition (mM): KCl (126.0), MgCl2.6H2O (4.5), ATP Mg salt (4.0), GTP tris salt (0.3), creatine PO4 (14.0), D-glucose (9.0), EGTA (9.0), HEPES (9.0). The pH is adjusted to 7.4 with KOH. Signals are acquired (3 kHz high frequency cut-off, 12 bit resolution) using a 586-based personal computer.
Cell resting membrane potential (RMP) is measured in current clamp using the above mentioned instrumentation and pipette solutions. For these experiments nystatin is also added to the pipette solution (100 μg/ml) to allow recording through utilization of the perforated patch technique (Korn, et al, 1991). After stable access is achieved, RMP is recorded for a 5 minute control period followed by 5 minute of drug application (0.3 and 1.0 μM). After this time, various antagonists (linopirdine, XE-991) are added to the perfusate and RMP is recorded for an additional 5 minutes. […]
Rat bladder strips were isolated and prepared as previously described (Wojdan, A., Freeden, C., Woods, M., Oshiro, G., Spinelli, W. et al., J Pharmacol ExpTherap 289:1410–1418 (1999)). […] Message for KCNQ subunits was probed using quantitative rtPCR on an ABI PRISM 7700 Sequence Detection System (TAQMAN). […]

The structures appear in SMILES notation. Where two headings read alike, the source gives them in different places.

The term IC50 denotes the concentration at which inhibition is half-maximal.

For `CCOC(=O)Nc1ccc(NCc2ccc(F)cc2)cc1N` [retigabine, N-[2-amino-4-(4-fluorobenzylamino)-phenyl]carbamic acid ethyl ester], the half-maximal inhibitory concentration (IC50) in assay [1] (read-out: IC50 for inhibition of isolated rat bladder strip contractions, precontracted with 20 mM KCl, area under the contraction curve) was determined as 1.4 ± 0.1 µM; in assay [1] (read-out: IC50 for inhibition of isolated rat bladder strip contractions, precontracted with 60 mM KCl) it was 21.8 ± 0.8 µM. For the same molecule, in assay [2], the hyperpolarization of cells is on record as 11±1.1 mV.

(Values after US7160684B2, “Methods of selecting compounds for modulation of bladder function” (Wyeth, priority 2000, dated 2007).)
